Laboratory results from PMC11111408, “Concurrent inhibition of oncogenic and wild-type RAS-GTP for cancer therapy” (Nature, 2024).
Where “and” joins values, the source holds several entries; their conditions need not be identical. Equal entries are not always repeated.

How the values were obtained:
KRAS^G13D = KRAS^G13D (Homo sapiens, UniProt P01116+P62937, G13D); test: Biochemical RAS–RAF (BRAF RBD) disruption, TR-FRET
Excerpt: (§1) Time-resolved fluorescence resonance energy transfer (TR-FRET) was used as previously described to assess disruption of the interactions between wild-type RAS or the mutant oncogenic RAS proteins and the RAS-binding domain of BRAF, and to assess the induction of interactions between the RAS proteins and CYPA[12].

KRAS^G13C = KRAS^G13C (Homo sapiens, UniProt P01116+P62937, G13C); test: Biochemical RAS–RAF (BRAF RBD) disruption, TR-FRET
Excerpt: as §1

KRAS^G12A = KRAS^G12A (Homo sapiens, UniProt P01116+P62937, G12A); test: Biochemical RAS–RAF (BRAF RBD) disruption, TR-FRET
Excerpt: as §1

NRAS WT = NRAS WT (Homo sapiens, UniProt P01111+P62937); test: Biochemical RAS–RAF (BRAF RBD) disruption, TR-FRET
Excerpt: as §1

KRAS^Q61H = KRAS^Q61H (Homo sapiens, UniProt P01116+P62937, Q61H); test: Biochemical RAS–RAF (BRAF RBD) disruption, TR-FRET
Excerpt: as §1

NRAS^Q61K = NRAS^Q61K (Homo sapiens, UniProt P01111+P62937, Q61K); test: Biochemical RAS–RAF (BRAF RBD) disruption, TR-FRET
Excerpt: as §1

HRAS^G13R = HRAS^G13R (Homo sapiens, UniProt P01112+P62937, G13R); test: Biochemical RAS–RAF (BRAF RBD) disruption, TR-FRET; settings: HRAS^G13R; BRAF RBD; (95% CI); read-out: Biochemical RAS-RAF Disruption EC50
Excerpt: as §1

NRAS^Q61L = NRAS^Q61L (Homo sapiens, UniProt P01111+P62937, Q61L); test: Biochemical RAS–RAF (BRAF RBD) disruption, TR-FRET; settings: (95% CI)
Excerpt: as §1

NRAS^Q61R = NRAS^Q61R (Homo sapiens, UniProt P01111+P62937, Q61R); test: Biochemical RAS–RAF (BRAF RBD) disruption, TR-FRET; settings: (95% CI)
Excerpt: as §1

[1] = system: adagrasib-resistant NCI-H358 cells with secondary NRAS^Q61K mutation; test: Proliferation (CTG) and western blots of parental and adagrasib-resistant NCI-H358 (NRAS^Q61K); assay type: cell-based, human; settings: NCI-H358 clone with concurrent NRAS^Q61K mutation
[2] = system: NCI-H358 and MIA PaCa-2 cells expressing RTK constructs; test: pERK (MSD) in NCI-H358 and MIA PaCa-2 cells expressing exogenous RTK or RTK fusion constructs; assay type: cell-based, human

Compound `CCn1c(-c2cc(N3CCN(C4CC4)CC3)cnc2[C@H](C)OC)c2c3cc(ccc31)-c1csc(n1)C[C@H](NC(=O)[C@H]1[C@@H]3COC[C@@H]31)C(=O)N1CCC[C@H](N1)C(=O)OCC(C)(C)C2` [RMC-7977] has an EC50 (KRAS^G13D) of 0.142 µM, an EC50 (KRAS^G13C) of 0.0497 µM and an EC50 (KRAS^G12A) of 0.102 µM. It also gave an EC50 (NRAS WT) of 0.0577 µM, an EC50 (KRAS^Q61H) of 0.0477 µM and an EC50 (NRAS^Q61K) of 0.0539 µM. For the same compound, the EC50 (HRAS^G13R) was 0.0237 µM, the EC50 (NRAS^Q61L) was 0.145 µM and the EC50 (NRAS^Q61R) was 0.181 µM. For the same compound, the “RAS signalling and growth of adagrasib-resistant clone” value [1] was “inhibited RAS signalling and growth”, the “pERK inhibition in MiaPaCa2 RTK fusion overexpression cells treated with RMC-7977” value (“pERK inhibition … with RMC-7977” below) ([2]; CCDC6-RET, RMC-7977 0.046 nM) was 114.81 and 112.21 and 120.39 and the “pERK inhibition … with RMC-7977” value ([2]; CCDC6-RET, RMC-7977 0.412 nM) was 62.51 and 66.85 and 62.20 and 56.39. For the same compound, the “pERK inhibition … with RMC-7977” value ([2]; CCDC6-RET, RMC-7977 1.235 nM) was 40.55 and 38.10 and 39.55 and 34.25, the “pERK inhibition … with RMC-7977” value ([2]; CCDC6-RET, RMC-7977 3.704 nM) was 15.40 and 16.48 and 16.06 and 15.78 and the “pERK inhibition … with RMC-7977” value ([2]; CCDC6-RET, RMC-7977 11.111 nM) was 5.99 and 6.04 and 6.20 and 6.24. For the same compound, the “pERK inhibition … with RMC-7977” value ([2]; CCDC6-RET, RMC-7977 33.333 nM) was 4.07 and 4.10 and 4.14 and 4.22, the “pERK inhibition … with RMC-7977” value ([2]; CCDC6-RET, RMC-7977 100.000 nM) was 3.63 and 3.37 and 3.48 and 3.54 and the “pERK in NCI-H358 RTK overexpression cells treated with RMC-7977” value ([2]; EGFR WT, RMC-7977 0.0152 nM) was 104.75 and 140.08. For the same compound, the “pERK inhibition in H358 RTK overexpression cells” value ([2]; EGFR WT, RMC-7977 0.0152 nM) was 88.81 and 100.67, the “pERK in NCI-H358 RTK overexpression cells treated with RMC-7977” value ([2]; EGFR WT, RMC-7977 0.0457 nM) was 101.07 and 109.46 and the “pERK inhibition in H358 RTK overexpression cells” value ([2]; EGFR WT, RMC-7977 0.0457 nM) was 80.53 and 78.65. For the same compound, the “pERK in NCI-H358 RTK overexpression cells treated with RMC-7977” value ([2]; EGFR WT, RMC-7977 0.41 nM) was 70.68 and 81.35, the “pERK inhibition in H358 RTK overexpression cells” value ([2]; EGFR WT, RMC-7977 0.41 nM) was 58.96 and 57.93 and the “pERK inhibition in H358 RTK overexpression cells” value ([2]; EGFR WT, RMC-7977 3.70 nM) was 13.20 and 12.44. The “pERK inhibition in H358 RTK overexpression cells” value ([2]; EGFR WT, RMC-7977 11.11 nM) was 5.97 and 5.02, the “pERK in NCI-H358 RTK overexpression cells treated with RMC-7977” value ([2]; EGFR WT, RMC-7977 33.33 nM) was 1.98 and 1.90 and the “pERK inhibition in H358 RTK overexpression cells” value ([2]; EGFR WT, RMC-7977 33.33 nM) was 3.17 and 3.29. The “pERK in NCI-H358 RTK overexpression cells treated with RMC-7977” value ([2]; EGFR WT, RMC-7977 100.00 nM) was 1.18 and 1.21, the “pERK inhibition in H358 RTK overexpression cells” value ([2]; EGFR WT, RMC-7977 100.00 nM) was 3.04 and 2.54 and the “pERK in NCI-H358 RTK overexpression cells treated with RMC-7977” value ([2]; EGFR WT, RMC-7977 300.00 nM) was 1.43 and 1.37. The “pERK inhibition in H358 RTK overexpression cells” value ([2]; EGFR WT, RMC-7977 300.00 nM) was 2.79 and 3.22, the “pERK inhibition … with RMC-7977” value ([2]; EML4-ALK, RMC-7977 0.412 nM) was 51.66 and 62.71 and 69.43 and the “pERK inhibition … with RMC-7977” value ([2]; EML4-ALK, RMC-7977 1.235 nM) was 29.82 and 34.96 and 36.22. The “pERK inhibition … with RMC-7977” value ([2]; EML4-ALK, RMC-7977 3.704 nM) was 13.53 and 15.19 and 15.47, the “pERK inhibition … with RMC-7977” value ([2]; EML4-ALK, RMC-7977 11.111 nM) was 5.91 and 5.92 and 5.79 and the “pERK inhibition … with RMC-7977” value ([2]; EML4-ALK, RMC-7977 100.000 nM) was 3.46 and 3.15 and 3.05. The “pERK in NCI-H358 RTK overexpression cells treated with RMC-7977” value ([2]; FGFR2, RMC-7977 0.0152 nM) was 105.65, the “pERK inhibition in H358 RTK overexpression cells” value ([2]; FGFR2, RMC-7977 0.0152 nM) was 106.96 and the “pERK in NCI-H358 RTK overexpression cells treated with RMC-7977” value ([2]; FGFR2, RMC-7977 0.0457 nM) was 88.22. For the same compound, the “pERK inhibition in H358 RTK overexpression cells” value ([2]; FGFR2, RMC-7977 0.0457 nM) was 111.13, the “pERK in NCI-H358 RTK overexpression cells treated with RMC-7977” value ([2]; FGFR2, RMC-7977 0.41 nM) was 48.78 and the “pERK inhibition in H358 RTK overexpression cells” value ([2]; FGFR2, RMC-7977 0.41 nM) was 65.30. The “pERK inhibition in H358 RTK overexpression cells” value ([2]; FGFR2, RMC-7977 3.70 nM) was 17.67, the “pERK inhibition in H358 RTK overexpression cells” value ([2]; FGFR2, RMC-7977 11.11 nM) was 6.99 and the “pERK in NCI-H358 RTK overexpression cells treated with RMC-7977” value ([2]; FGFR2, RMC-7977 33.33 nM) was 3.56. The “pERK inhibition in H358 RTK overexpression cells” value ([2]; FGFR2, RMC-7977 33.33 nM) was 3.76, the “pERK in NCI-H358 RTK overexpression cells treated with RMC-7977” value ([2]; FGFR2, RMC-7977 100.00 nM) was 2.34 and the “pERK inhibition in H358 RTK overexpression cells” value ([2]; FGFR2, RMC-7977 100.00 nM) was 2.57. The “pERK in NCI-H358 RTK overexpression cells treated with RMC-7977” value ([2]; FGFR2, RMC-7977 300.00 nM) was 1.90, the “pERK inhibition in H358 RTK overexpression cells” value ([2]; FGFR2, RMC-7977 300.00 nM) was 2.56 and the “pERK inhibition … with RMC-7977” value ([2]; FGFR3-TACC3, RMC-7977 0.412 nM) was 52.00 and 53.38 and 52.06 and 52.75. The “pERK inhibition … with RMC-7977” value ([2]; FGFR3-TACC3, RMC-7977 1.235 nM) was 23.92 and 29.24 and 28.51 and 28.89 and the “pERK inhibition … with RMC-7977” value ([2]; FGFR3-TACC3, RMC-7977 3.704 nM) was 15.09 and 13.49 and 14.38 and 14.06.
